From patent publication US20220354998A1, “HYDROGEL-FILLED MICRONEEDLE ARRAYS AND USES THEREOF” (University of Connecticut, priority 2021, published 2022) come the findings set out here.

The subject of data set [1] is Human umbilical vein endothelial cells (HUVECs). Briefly: In vitro scratch assay on cultured HUVECs. The class given is cell-based. As to the method:
In Vitro Scratch Assay. Human umbilical vein endothelial cells (HUVECs) (Sigma-Aldrich) were cultured in EGM™ Endothelial Cell Growth Medium BulletKit™ (Lonza) complete medium. At their fifth passage, the HUVECs were detached using trypsin-EDTA (0.1% w/v), resuspended in the growth medium, and seeded at a concentration of 50,000 cells per well into a 12-well tissue culture plate that was coated with a thin layer of Geltrex® hESC-Qualified, Ready-To-Use, Reduced Growth Factor Basement Membrane Matrix (Gibco®). The Geltrex® layer was formed by diluting by a factor of 2 in the basal endothelial medium and seeding in empty wells. […]
A scratch was created in the confluent HUVECs by lightly dragging a P200 pipette tip across the bottom of the well. […] The concentration of VEGF in the MNA+VEGF group was calculated so that if total VEGF release occurred, the concentration of VEGF in the well would match the concentration of the positive control (50 ng/mL). […] The area of scratch closure for each time point was calculated using ImageJ (NIH, Bethesda, Md.) and compared for relative area change to 0 h.
The ability of the platform to preserve the bioactivity of encapsulated therapeutics was assessed by loading vascular endothelial growth factor (VEGF), an important angiogenic factor. […] Three different groups were evaluated: MNA−VEGF, MNA+VEGF, and a positive control. […]

A short description of data set [2]: Dual-drug release from multi-length MNA into two-gel skin model. The class given is physicochemical. The following applies: 1% alginate, 16 h. As to the method: Evaluation of Dual-Drug Release Capability. For the dual release, MNAs with 4.2 mm long and 2 mm short needles were separately loaded with a 1% (m/v) alginate solution in DPBS containing ˜46 μg/mL of Rh-B, ˜1010 μg/mL of BSA-FITC, or no added analyte. Four combinations of analyte-loaded alginate MNAs were tested: (1) long needles loaded with Rh-B and short needles loaded with BSA-FITC (Rh-B/FITC), (2) long needles loaded with Rh-B and short needles blank (Rh-B/Blank), (3) long needles blank and short needles loaded with BSA-FITC (Blank/FITC), and (4) both lengths blank (Blank/Blank). The gels were crosslinked as previously mentioned and ran in quintuplicate. The needles were inserted into a two-gel skin model that include a 2 mm thick 3% (m/v) low-gelling agarose cast on top of a 3 mm thick 10% (m/v) porcine gelatin in 12 well plates. Both solutions were prepared in PBS. […] The collected gels were melted and the amount of Rh-B and BSA-FITC was quantified using a BioTek Cytation 5 plate reader at an excitation/emission of 546/568 and 495/520 nm, respectively.
An additional release experiment was conducted to evaluate the performance of the MNA at the dual-delivery of drugs. […] Following the release, the gel layers were separated, melted, and read in a plate reader for their Rh-B and BSA-FITC content. […] The measured release results are quantified in FIG. 5C, FIG. 5D, and FIG. 13. […]

Take “vascular endothelial growth factor [VEGF]”: the “healing potential (gap closure)” value in data set [1] (after 8 h of culture, HUVEC scratch, n=4) was “cells nearly closed the gap in its entirety”. The “effect on HUVEC migration” value in data set [1] (scratch assay) is “positive effect”.

For the compound `CCN(CC)c1ccc2c(-c3ccccc3C(=O)O)c3ccc(=[N+](CC)CC)cc-3oc2c1.[Cl-]` [Rh-B, Rhodamine B], the “Rh-B signal by gel layer” value in data set [2] (long needles (4.2 mm)) was “stronger in the gelatin”.

For “BSA fluorescein isothiocyanate conjugate [BSA-FITC]”, the “BSA-FITC signal by gel layer” value in data set [2] (short needles (2 mm)) is given as “greater BSA-FITC signal in the top, agarose layer”.
